According to the NIST ThermoML archive (doi:10.1021/je900550v):
± gives the expanded uncertainty stated by the source.

Conditions: 101.33 kPa, Liquid; for speed of sound: Sing-around technique in a fixed-path interferometer; for mass density: Vibrating tube method

CC(=O)[O-].C[NH2+]CCO [N-methyl-2-hydroxyethylammonium acetate]
Conditions | mass density [kg/m3] | speed of sound [m/s] | viscosity [mPa·s]
293.15 K | 1103.76 ± 2.2 | 1807.5 ± 2.2 | –
293.4 K | 1103.61 ± 2.2 | 1806.9 ± 2.2 | –
293.65 K | 1103.46 ± 2.2 | 1806.3 ± 2.2 | –
293.9 K | 1103.32 ± 2.2 | 1805.6 ± 2.2 | –
294.15 K | 1103.17 ± 2.2 | 1805 ± 2.2 | –
294.4 K | 1103.02 ± 2.2 | 1804.3 ± 2.2 | –
294.65 K | 1102.88 ± 2.2 | 1803.7 ± 2.2 | –
294.9 K | 1102.73 ± 2.2 | 1803.1 ± 2.2 | –
295.15 K | 1102.59 ± 2.2 | 1802.4 ± 2.2 | –
295.4 K | 1102.44 ± 2.2 | 1801.8 ± 2.2 | –
295.65 K | 1102.29 ± 2.2 | 1801.2 ± 2.2 | –
295.9 K | 1102.14 ± 2.2 | 1800.5 ± 2.2 | –
296.15 K | 1102 ± 2.2 | 1799.9 ± 2.2 | –
296.4 K | 1101.85 ± 2.2 | 1799.2 ± 2.2 | –
296.65 K | 1101.7 ± 2.2 | 1798.6 ± 2.2 | –
296.9 K | 1101.56 ± 2.2 | 1798 ± 2.2 | –
297.15 K | 1101.41 ± 2.2 | 1797.3 ± 2.2 | –
297.4 K | 1101.26 ± 2.2 | 1796.7 ± 2.2 | –
297.65 K | 1101.11 ± 2.2 | 1796 ± 2.2 | –
297.9 K | 1100.97 ± 2.2 | 1795.4 ± 2.2 | –
298.15 K | 1100.83 ± 2.2 | 1794.8 ± 2.2 | 106.06 ± 5.7
298.4 K | 1100.67 ± 2.2 | 1794.1 ± 2.2 | –
298.65 K | 1100.53 ± 2.2 | 1793.5 ± 2.2 | –
298.9 K | 1100.38 ± 2.2 | 1792.9 ± 2.2 | –
299.15 K | 1100.23 ± 2.2 | 1792.2 ± 2.2 | –
299.4 K | 1100.08 ± 2.2 | 1791.6 ± 2.2 | –
299.65 K | 1099.93 ± 2.2 | 1791 ± 2.2 | –
299.9 K | 1099.78 ± 2.2 | 1790.3 ± 2.2 | –
300.15 K | 1099.63 ± 2.2 | 1789.7 ± 2.2 | –
300.4 K | 1099.48 ± 2.2 | 1789 ± 2.2 | –
300.65 K | 1099.34 ± 2.2 | 1788.4 ± 2.2 | –
300.9 K | 1099.19 ± 2.2 | 1787.8 ± 2.2 | –
301.15 K | 1099.04 ± 2.2 | 1787.1 ± 2.2 | –
301.4 K | 1098.89 ± 2.2 | 1786.5 ± 2.2 | –
301.65 K | 1098.74 ± 2.2 | 1785.8 ± 2.2 | –
301.9 K | 1098.59 ± 2.2 | 1785.2 ± 2.2 | –
302.15 K | 1098.44 ± 2.2 | 1784.6 ± 2.2 | –
302.4 K | 1098.29 ± 2.2 | 1783.9 ± 2.2 | –
302.65 K | 1098.14 ± 2.2 | 1783.3 ± 2.2 | –
302.9 K | 1097.99 ± 2.2 | 1782.6 ± 2.2 | –
303.15 K | 1097.84 ± 2.2 | 1782 ± 2.2 | 78.7 ± 3
303.4 K | 1097.69 ± 2.2 | 1781.3 ± 2.2 | –
303.65 K | 1097.54 ± 2.2 | 1780.7 ± 2.2 | –
303.9 K | 1097.4 ± 2.2 | 1780.2 ± 2.2 | –
304.15 K | 1097.25 ± 2.2 | 1779.6 ± 2.2 | –
304.4 K | 1097.1 ± 2.2 | 1779 ± 2.2 | –
304.65 K | 1096.95 ± 2.2 | 1778.3 ± 2.2 | –
304.91 K | 1096.79 ± 2.2 | 1777.7 ± 2.2 | –
305.15 K | 1096.64 ± 2.2 | 1777 ± 2.2 | –
305.4 K | 1096.49 ± 2.2 | 1776.4 ± 2.2 | –
305.65 K | 1096.34 ± 2.2 | 1775.7 ± 2.2 | –
305.9 K | 1096.19 ± 2.2 | 1775.1 ± 2.2 | –
306.15 K | 1096.04 ± 2.2 | 1774.5 ± 2.2 | –
306.4 K | 1095.89 ± 2.2 | 1773.8 ± 2.2 | –
306.65 K | 1095.74 ± 2.2 | 1773.2 ± 2.2 | –
306.9 K | 1095.59 ± 2.2 | 1772.5 ± 2.2 | –
307.15 K | 1095.44 ± 2.2 | 1771.9 ± 2.2 | –
307.4 K | 1095.29 ± 2.2 | 1771.3 ± 2.2 | –
307.65 K | 1095.14 ± 2.2 | 1770.6 ± 2.2 | –
307.9 K | 1094.98 ± 2.2 | 1770 ± 2.2 | –
308.15 K | – | – | 60.03 ± 1.6
